Laboratory results reported in patent US12590062B2, “PD-1/PD-L1 inhibitors” (Gilead Sciences, Inc., priority 2017, dated 2026).

Assays:
PD-L1 = biological target: T1, PD-L1 (Homo sapiens, UniProt Q9NZQ7); assay: PD-L1/PD-L1 dimerization biochemical protein-protein interaction assay (ALPHA); format: binding; conditions: compound-induced PD-L1 dimerization, head prints '1 nM' (0.5 nM His-tagged PD-L1 and 0.5 nM FLAG-tagged PD-L1), read-out: AC50 PDL1 Dimer Alpha 1 nM
T1 construct: determine if they can specifically dimerize the extracellular domains of PD-L1
T1 sequence (Q9NZQ7 19-238 limits assumed): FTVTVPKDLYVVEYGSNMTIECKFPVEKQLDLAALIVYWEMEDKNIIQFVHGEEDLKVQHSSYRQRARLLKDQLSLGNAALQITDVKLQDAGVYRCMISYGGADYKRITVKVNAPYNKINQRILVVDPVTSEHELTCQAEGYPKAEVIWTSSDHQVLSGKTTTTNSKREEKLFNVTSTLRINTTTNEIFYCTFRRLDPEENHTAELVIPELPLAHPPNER
T1 sequence (Q9NZQ7 19-238 limits assumed): as above
Summary of the method: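 After 2 h at 25 °C with compound, His- and FLAG-tagged PD-L1 ECDs (each 0.5 nM final; 25 mM Hepes pH 7.4, 150 mM NaCl) were detected by sequential anti-His acceptor and anti-FLAG donor bead incubations. Dose-response curves fitted to four-parameter equation for AC50.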

PD-1/PD-L1 = PD-1/PD-L1 (Homo sapiens, UniProt Q9NZQ7); assay: PD-1/PD-L1 biochemical protein-protein interaction assay (ALPHA); format: binding; conditions: 0.3 nM His tagged PD-L1, 2.5 nM biotinylated Fc-PD-1, 60 minutes at 25° C., read-out: IC50 PD-L1-PD-1 Alpha IC50-mono PD-L1-fcP-D1
Chain of PD-1/PD-L1 (Q9NZQ7 19-238 limits assumed): as above
Summary of the method: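 Compound blockade of the PD-1/PD-L1 extracellular-domain interaction measured as reduced ALPHA signal after 60 min at 25 °C, pH 7.4 Hepes buffer with EDTA, Tween 20 and BSA. Final proteins: His-tagged PD-L1 0.3 nM, biotinylated Fc-PD-1 2.5 nM; four-parameter curve fit gives IC50.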

PD-1/PD-L1 interaction = biological target: T2, PD-1/PD-L1 interaction (Homo sapiens, UniProt Q9NZQ7); assay: PD-1/PD-L1 NFAT reporter co-culture assay; format: cell-based; conditions: Jurkat PD-1 NFAT-luciferase cells co-cultured with aAPC-PD-L1 CHO cells, 6 hrs at 37° C.; read-out: EC50 NFAT Luciferase
T2 construct: expressed in transfected cells; host or cells: CHO cells (aAPC-PD-L1) co-cultured with Jurkat cells overexpressing PD-1 and an NFAT-luciferase reporter
T2 sequence (Q9NZQ7 19-290): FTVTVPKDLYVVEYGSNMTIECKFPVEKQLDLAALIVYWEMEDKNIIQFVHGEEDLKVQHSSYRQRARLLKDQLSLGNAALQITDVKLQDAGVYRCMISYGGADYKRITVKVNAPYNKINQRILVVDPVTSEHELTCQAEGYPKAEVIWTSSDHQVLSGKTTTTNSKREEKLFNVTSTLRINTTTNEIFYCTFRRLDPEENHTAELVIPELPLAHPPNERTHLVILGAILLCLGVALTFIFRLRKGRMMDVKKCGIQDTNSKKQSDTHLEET
Summary of the method: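 Jurkat cells overexpressing PD-1 with NFAT-driven luciferase were mixed with compound in RPMI 1640/2% FBS and seeded onto overnight-plated CHO aAPC-PD-L1 cells expressing surface anti-CD3 and PD-L1. Co-culture ran 6 h at 37 °C; luminescence read with ONE-Glo; EC50 from four-parameter fit.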

AC50 (PD-L1) [nM]	IC50 (PD-1/PD-L1) [nM]	EC50 (PD-1/PD-L1 interaction) [nM]	Structure (SMILES)
302	1.43	182	Cc1c(COc2cc(OCc3cncc(C#N)c3)c(CNC[C@@H]3CCC(=O)N3)cc2Cl)cccc1-c1cccc(-c2ccc(CNC[C@@H]3CCC(=O)N3)cc2)c1C [Example 497]
84.7	0.115	111	Cc1c(COc2cc(OCc3cncc(C#N)c3)c(CN[C@@](C)(CO)C(=O)O)cc2Cl)cccc1-c1cccc(-c2cccc([C@@H](C)N)c2)c1C [Example 498]
86.5	0.093	59	Cc1c(COc2cc(OCc3cncc(C#N)c3)c(CN[C@@](C)(CO)C(=O)O)cc2Cl)cccc1-c1cccc(-c2cccc([C@H](C)N)c2)c1C [Example 499]
50.1	0.064	97	Cc1c(COc2cc(OCc3cncc(C#N)c3)c(CN[C@@](C)(CO)C(=O)O)cc2Cl)cccc1-c1cccc(-c2ccc(C3=NCCN3)cn2)c1C [Example 500]
35.3	0.064	60	COc1cc(-c2cccc(-c3cccc(COc4cc(OCc5cncc(C#N)c5)c(CN[C@@](C)(CO)C(=O)O)cc4Cl)c3C)c2C)ccc1C1=NCCN1 [Example 501]
85.2	0.081	100	COc1cc(-c2cccc(-c3cccc(COc4cc(OCc5cncc(C#N)c5)c(CNC[C@@H](O)CC(=O)O)cc4Cl)c3C)c2C)ccc1C1=NCCN1 [Example 502]
42.1	0.064	81	Cc1c(COc2cc(OCc3cncc(C#N)c3)c(CN[C@@](C)(CO)C(=O)O)cc2Cl)cccc1-c1cccc(-c2ccc(C3=NCCN3)cc2)c1C [Example 503]
47.8	0.064	68	COc1nc(-c2cccc(-c3cccc(COc4cc(OCc5cncc(C#N)c5)c(CN[C@@](C)(CO)C(=O)O)cc4Cl)c3C)c2C)ccc1C1=NCCN1 [Example 504]
55	0.064	80	COc1nc(-c2cccc(-c3cccc(COc4cc(OCc5cncc(C#N)c5)c(CNC[C@@H](O)CC(=O)O)cc4Cl)c3C)c2C)ccc1C1=NCCN1 [Example 505]
172	0.239	204	COc1cc(-c2cccc(-c3cccc(COc4cc(OCc5cncc(C#N)c5)c(CN[C@@](C)(CO)C(=O)O)cc4Cl)c3C)c2C)ccc1CN [Example 506]
262	0.693	210	COc1cc(-c2cccc(-c3cccc(COc4cc(OCc5cncc(C#N)c5)c(CNC[C@@H](O)CC(=O)O)cc4Cl)c3C)c2C)ccc1CN [Example 507]
78	0.084	156	COc1cc(-c2cccc(-c3cccc(COc4cc(OCc5cncc(C#N)c5)c(CN[C@@](C)(CO)C(=O)O)cc4Cl)c3C)c2C)ccc1CNCC1CCC(=O)N1 (stereo partly drawn) [Example 508]
129	0.097	89	COc1ccc(-c2cccc(-c3cccc(COc4cc(OCc5cncc(C#N)c5)c(CN[C@@](C)(CO)C(=O)O)cc4Cl)c3C)c2C)cc1CNCC1CCC(=O)N1 (stereo partly drawn) [Example 509]
232	0.064	147	Cc1c(COc2cc(OCc3cncc(C#N)c3)c(CN3C[C@@H](O)C[C@H]3C(=O)O)cc2Cl)cccc1-c1cccc(-c2ccc(OCCNCCO)cc2)c1C [Example 510]
36.9	0.082	197	Cc1c(COc2cc(OCc3cncc(C#N)c3)c(CN[C@](C)(CO)C(=O)O)cc2Cl)cccc1-c1cccc(-c2ccc(OCCNCCO)cc2)c1C [Example 511]
255	0.526	131	COc1cc(-c2cccc(-c3cccc(-c4cc(F)c(CNC[C@@H]5CCC(=O)N5)c(OC)c4)c3Cl)c2Cl)cc(F)c1CNC[C@@H]1CCC(=O)N1 [Example 512]
89.3	0.301	47	COc1cc(-c2cccc(-c3cccc(-c4ccc(CNC[C@@H]5CCC(=O)N5)c(OC)c4)c3Cl)c2Cl)ccc1CNC[C@@H]1CCC(=O)N1 [Example 513]
359	0.735	156	Cc1c(COc2cc(OCc3cncc(C#N)c3)c(CNC[C@@H](O)CC(=O)O)cc2Cl)cccc1-c1cccc(-c2ccc(CNC[C@@H](O)CC(=O)O)c(-c3ccccc3)c2)c1C [Example 514]
104	0.065	92	Cc1c(COc2cc(OCc3cncc(C#N)c3)c(CN[C@@](C)(CO)C(=O)O)cc2Cl)cccc1-c1cccc(-c2ccc(OCCN3CCC4(CCCNC4=O)CC3)cc2)c1C [Example 516]
91.7	0.064	154	Cc1c(COc2cc(OCc3cncc(C#N)c3)c(CN[C@@](C)(CO)C(=O)O)cc2Cl)cccc1-c1cccc(-c2ccc(OCCNC[C@@H]3CCC(=O)N3)cc2)c1C [Example 517]
96.1	0.064	159	Cc1c(COc2cc(OCc3cncc(C#N)c3)c(CN[C@@](C)(CO)C(=O)O)cc2Cl)cccc1-c1cccc(-c2ccc(OCCNC[C@H]3CCC(=O)N3)cc2)c1C [Example 518]
103	0.064	125	Cc1c(COc2cc(OCc3cncc(C#N)c3)c(CNC[C@@H](O)CC(=O)O)cc2Cl)cccc1-c1cccc(-c2ccc(OCCN3CC4(CCC(=O)N4)C3)cc2)c1C [Example 519]
57.5	0.064	97	Cc1c(COc2cc(OCc3cncc(C#N)c3)c(CN[C@@](C)(CO)C(=O)O)cc2Cl)cccc1-c1cccc(-c2ccc(OCCN3CC4(CCC(=O)N4)C3)cc2)c1C [Example 520]
125	0.064	106	Cc1c(COc2cc(OCc3cncc(C#N)c3)c(CN[C@@](C)(CO)C(=O)O)cc2Cl)cccc1-c1cccc(-c2ccc(OCCN3CCC4(CC3)CNC(=O)C4)cc2)c1C [Example 521]
74.3	0.064	195	Cc1c(COc2cc(OCc3cncc(C(=O)O)c3)c(CN[C@@](C)(CO)C(=O)O)cc2Cl)cccc1-c1cccc(-c2ccc(OCCN3CC[C@@H](O)C3)cc2)c1C [Example 522]
≥ 10000	0.295	129	COc1cc(OCc2cccc(-c3cccc(COc4cc(OC)c(CNC[C@@H](O)CC(=O)O)cc4C#N)c3C)c2C)c(C#N)cc1CNC[C@@H](O)CC(=O)O [Example 523]
67.7	0.064	39	COc1nc(O[C@H]2CCc3c(-c4cccc(-c5cnc6c(CN7CC8(CNC(=O)C8)C7)cn(C)c6n5)c4Cl)cccc32)c(Cl)cc1CN1CCC[C@@H](C(=O)O)C1 [Example 524]
34.8	0.064	27	COc1nc(O[C@H]2CCc3c(-c4cccc(-c5cnc6c(CN7CC8(CNC(=O)C8)C7)cn(C)c6n5)c4Cl)cccc32)c(Cl)cc1CN1CC[C@@H](C(=O)O)C1 [Example 525]
73.6	0.064	110	COc1nc(O[C@H]2CCc3c(-c4cccc(-c5cnc6c(CNC[C@@H]7CCC(=O)N7)cn(C)c6n5)c4Cl)cccc32)c(Cl)cc1CN1CCC[C@@H](C(=O)O)C1 [Example 526]
69.9	0.064	46	COc1nc(O[C@H]2CCc3c(-c4cccc(-c5cnc6c(CN7CC8(CNC(=O)C8)C7)cn(C)c6n5)c4Cl)cccc32)c(Cl)cc1CN1CC(C(=O)O)C1 [Example 527]
